Values quoted from earlier work, collected in US9650678B2, “Methods for identifying an increased risk of anthracycline-related cardiotoxicity” (CITY OF HOPE, priority 2012, dated 2017).

How the values were obtained:
[1] = factor that reflects the drug's cardiotoxic potential
patients = conditions: package insert, doxorubicin hydrochloride injection (Teva)
CBR1 = target: T1, CBR1 (Homo sapiens, UniProt P16152)
T1 sequence (P16152 1-277): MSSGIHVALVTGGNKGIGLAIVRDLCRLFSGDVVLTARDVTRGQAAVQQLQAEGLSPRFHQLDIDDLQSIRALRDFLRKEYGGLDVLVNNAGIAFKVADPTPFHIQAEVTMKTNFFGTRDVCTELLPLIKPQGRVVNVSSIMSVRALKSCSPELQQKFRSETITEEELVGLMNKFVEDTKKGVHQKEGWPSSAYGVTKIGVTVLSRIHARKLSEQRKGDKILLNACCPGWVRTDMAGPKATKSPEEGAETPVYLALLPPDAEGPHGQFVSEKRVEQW

synthesis of doxorubicinol, times faster (CBR3) | rate of doxorubicinol synthesis, fold higher (CBR1) | SMILES | Conversion factor to Doxorubicin Isotoxic Dose [1] | total cumulative dose in excess of which risk of potentially fatal congestive heart failure increases rapidly (patients)
 |  | COc1cccc2c1C(=O)c1c(O)c3c(c(O)c1C2=O)C[C@@](O)(C(C)=O)C[C@@H]3O[C@H]1C[C@H](N)[C@H](O)[C@H](C)O1 [Daunomycin] | 0.833 (⅚) | 
 |  | COc1cccc2c1C(=O)c1c(O)c3c(c(O)c1C2=O)C[C@@](O)(C(=O)CO)C[C@@H]3O[C@H]1C[C@H](N)[C@H](O)[C@H](C)O1 [Doxorubicin] | 1 | greater than 400 mg/m^2
 |  | COc1cccc2c1C(=O)c1c(O)c3c(c(O)c1C2=O)C[C@@](O)(C(=O)CO)C[C@@H]3O[C@H]1C[C@H](N)[C@@H](O)[C@H](C)O1 [Epirubicin] | 0.67 (⅔) | 
 |  | CC(=O)[C@]1(O)Cc2c(O)c3c(c(O)c2[C@@H](O[C@H]2C[C@H](N)[C@H](O)[C@H](C)O2)C1)C(=O)c1ccccc1C3=O [Idarubicin] | 5 | 
2.6 times | 1.5 fold | COc1cccc2c1C(=O)c1c(O)c3c(c(O)c1C2=O)C[C@@](O)([C@@H](O)CO)C[C@@H]3O[C@H]1C[C@H](N)[C@H](O)[C@H](C)O1 [doxorubicinol] |  | 
